Results: patent publication US10117878B2, “Ligands for nematode nuclear receptors and uses thereof” (priority 2006, dated 2018)

Assays:
GAL4-DAF-12 = biological target: T1, GAL4-DAF-12 (Caenorhabditis elegans, UniProt G5EFF5); experiment: Co-transfection assay: GAL4-DAF-12 and GAL4-responsive luciferase reporter in HEK293 cells; format: cell-based, C. elegans; details: for Activation of DAF-12, initial compound screen: bile acids 10 μM with IBAT co-transfected, assays in the presence or absence of co-transfected DAF-9; for DAF-9 independent activation of GAL4-DAF-12 (in words): 10 μM sterol, without DAF-9
T1 construct: 184-754aa (DAF-12); expressed in transfected cells; host or cells: HEK293
T1 sequence (G5EFF5 184-753): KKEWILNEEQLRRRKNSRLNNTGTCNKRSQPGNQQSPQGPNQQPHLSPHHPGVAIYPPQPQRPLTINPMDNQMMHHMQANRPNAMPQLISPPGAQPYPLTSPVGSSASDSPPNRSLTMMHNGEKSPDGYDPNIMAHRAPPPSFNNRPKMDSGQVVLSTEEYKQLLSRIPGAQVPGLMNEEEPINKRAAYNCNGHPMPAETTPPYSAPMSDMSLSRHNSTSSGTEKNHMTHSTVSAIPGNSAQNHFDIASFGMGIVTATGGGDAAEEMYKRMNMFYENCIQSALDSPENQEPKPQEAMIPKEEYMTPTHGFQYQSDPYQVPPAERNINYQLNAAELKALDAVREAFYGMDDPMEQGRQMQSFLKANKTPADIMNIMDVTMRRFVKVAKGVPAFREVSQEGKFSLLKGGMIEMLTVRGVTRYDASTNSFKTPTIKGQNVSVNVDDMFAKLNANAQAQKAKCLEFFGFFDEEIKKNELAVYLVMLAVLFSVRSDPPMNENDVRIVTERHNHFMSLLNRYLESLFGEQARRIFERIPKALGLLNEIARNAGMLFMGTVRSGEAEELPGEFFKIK

[1] = biological target: DAF-12 ligand binding domain (Caenorhabditis elegans, UniProt G5EFF5)
DAF-12 ligand binding domain, sequence (G5EFF5 507-753): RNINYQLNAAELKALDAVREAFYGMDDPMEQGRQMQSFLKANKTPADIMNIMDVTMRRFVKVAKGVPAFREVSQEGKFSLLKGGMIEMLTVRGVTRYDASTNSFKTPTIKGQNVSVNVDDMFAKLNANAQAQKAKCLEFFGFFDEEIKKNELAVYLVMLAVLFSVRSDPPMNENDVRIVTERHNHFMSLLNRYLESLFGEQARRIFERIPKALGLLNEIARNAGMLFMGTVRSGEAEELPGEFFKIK

[2] = system: DAF-12 in the presence of DAF-9; experiment: Co-transfection assay: GAL4-DAF-12 reporter in HEK293 cells with co-transfected DAF-9; format: cell-based, C. elegans; details: 10 μM sterol; fold induction of RLU compared to ethanol control
Experimental: To screen for sterol-derived ligands of DAF-12 a co-transfection assay in HEK293 cells was performed using a chimeric GAL4-DAF-12 receptor and a GAL4-responsive luciferase reporter. […] Our initial compound screen consisted of bile acids and known vertebrate steroid and endocrine hormones as these compounds are ligands for PXR, VDR and LXR, the closest vertebrate homologs of DAF-12 (Antebi et al., 2000; Mooijaart et al., 2005).

human CYP27A1 = biological target: T2, human CYP27A1 (Homo sapiens, UniProt Q02318); experiment: Co-transfection of HEK293 cells with GAL4-DAF-12, human CYP27A1 and bovine adrenodoxin; format: cell-based; details: sterol 25 μM; bovine adrenodoxin co-transfected
T2 construct: expressed in transfected cells; host or cells: HEK293
T2 sequence (Q02318 34-531): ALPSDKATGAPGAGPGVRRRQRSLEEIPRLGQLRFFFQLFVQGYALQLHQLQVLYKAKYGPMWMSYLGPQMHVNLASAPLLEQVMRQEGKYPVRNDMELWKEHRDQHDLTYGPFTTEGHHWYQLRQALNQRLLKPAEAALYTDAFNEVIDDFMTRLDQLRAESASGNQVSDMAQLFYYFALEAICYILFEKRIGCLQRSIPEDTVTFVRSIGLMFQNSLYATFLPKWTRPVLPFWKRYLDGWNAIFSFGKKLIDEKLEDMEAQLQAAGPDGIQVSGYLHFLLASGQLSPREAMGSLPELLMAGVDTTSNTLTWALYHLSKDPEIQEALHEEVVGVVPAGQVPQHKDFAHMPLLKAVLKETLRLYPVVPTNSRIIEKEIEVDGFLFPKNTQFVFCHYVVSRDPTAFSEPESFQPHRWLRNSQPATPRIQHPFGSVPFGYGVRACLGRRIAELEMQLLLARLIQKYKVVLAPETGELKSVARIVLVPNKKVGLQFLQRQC
Experimental: (§1) Therefore, the ability of CYP27A1 to metabolize 4-cholesten-3-one into a DAF-12 activator was tested.

daf-9(dh6) null worms = experiment: Rescue of daf-9 null worms by extracts of sterols incubated with DAF-9 or control microsomes; details: for effect on daf-9 animals, DAF-9 microsomes (in words) / rescue of the Daf-c phenotypes: extracts from DAF-9 microsomes incubated with 100 μM sterol; for effect on daf-9 phenotypes, control microsomes (in words): extracts from control (hOR only) microsomes incubated with 100 μM sterol; for complete rescue of Daf-c and Mig phenotypes, animals tested: DAF-9 microsome reactions (100 μM sterol) diluted 8-fold
Experimental: Microsomes containing hOR or hOR and Daf-9 generated from Sf9 cells were thawed on ice and added to a final concentration of 0.5 mg/mL in 0.1M potassium phosphate buffer in the presence of an NADPH regenerating system (50 U/mL DL-isocitrate dehydrogenase, 0.1 M isocitrate and 0.1 M MgCl2). Substrates were added from stock solutions at 10^−2 M to a final concentration of 100 μM (final reaction volume of 0.5 mL). The mixture was preincubated for 3 min at 37° C. and the reaction was initiated by the addition of NADPH (1 mM). After 16 hrs, the reactions were stopped by extraction with 2×2 mL of methyl-tert-butyl-ether and the top layers were combined and dried under nitrogen. In some experiments, 0.5 μg of 1,4-cholestadiene-3-one was added as an internal standard for the extraction.
Individual 3-keto sterols and their respective 3β-hydroxy sterols were incubated with Sf9 cell microsomes co-expressing DAF-9 and the human P450 oxidoreductase (hOR). As a control, microsomes from cells expressing hOR alone were used.

[3] = system: DAF-12 homolog with co-transfected DAF-9; experiment: Activation of the Anycolostoma ceylancium DAF-12 homolog with co-transfection of DAF-9; format: cell-based
Source text: This invention contemplates the development of strategies against nematodes, including but not limited to parasitic nematodes. Many parasitic nematodes contain homologs of the orphan nuclear receptor DAF-12, which, as described above, is a key regulator of reproductive development in C. elegans. See, e.g., Siddiqui et al. (2000). In accordance with the present invention, therefore, ligands that are operative in the DAF-9/DAF-12 pathway in C. elegans will affect the life cycles of parasitic nematodes similarly. The inventors have discovered in Anycolostoma ceylancium, for example, a DAF-12 homolog that is activated by DAF-12 ligands, identified pursuant to this invention.

mouse CYP27A1 = biological target: T3, mouse CYP27A1 (Mus musculus, UniProt Q9DBG1); experiment: Co-transfection of HEK293 cells with GAL4-DAF-12, mouse CYP27A1 and bovine adrenodoxin; format: cell-based; details: sterol 25 μM; bovine adrenodoxin co-transfected
T3 construct: expressed in transfected cells; host or cells: HEK293
T3 sequence (Q9DBG1 33-533): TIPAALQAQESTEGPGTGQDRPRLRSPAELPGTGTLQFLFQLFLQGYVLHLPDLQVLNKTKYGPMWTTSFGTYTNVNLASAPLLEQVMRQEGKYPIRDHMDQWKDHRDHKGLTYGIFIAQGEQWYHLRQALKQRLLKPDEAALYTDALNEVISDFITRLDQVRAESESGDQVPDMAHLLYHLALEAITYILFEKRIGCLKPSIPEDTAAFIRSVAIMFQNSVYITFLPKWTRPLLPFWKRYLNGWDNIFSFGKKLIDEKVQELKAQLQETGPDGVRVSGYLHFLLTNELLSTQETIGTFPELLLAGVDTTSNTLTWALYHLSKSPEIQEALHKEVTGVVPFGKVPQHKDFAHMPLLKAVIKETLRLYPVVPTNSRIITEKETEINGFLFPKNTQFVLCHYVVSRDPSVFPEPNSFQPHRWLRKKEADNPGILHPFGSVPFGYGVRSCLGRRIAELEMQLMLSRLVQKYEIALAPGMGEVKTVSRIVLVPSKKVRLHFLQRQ
Experimental: as §1

C. elegans = details: in vivo; cited from earlier work
daf-9(dh6) nulls = experiment: Rescue assay with pure steroids, daf-9(dh6) nulls; format: in vivo, C. elegans; details: for effect of 26-hydroxy-4-cholesten-3-one on daf-9 nulls (in words): concentrations as high as 33 μM
[4] = control microsome reactions (100 μM sterol) diluted 8-fold
[5] = extracts from DAF-9 microsomes incubated with sterol

## C=C1/C(=C\C=C2/CCC[C@]3(C)[C@@H]([C@H](C)CCCC(C)(C)O)CC[C@@H]23)C[C@@H](O)C[C@@H]1O [1,25-dihydroxyvitamin D3]
GAL4-DAF-12
  Activation of DAF-12, initial compound screen: No other bile acids or endocrine hormones tested activated DAF-12

## CC(C)CCC[C@@H](C)[C@H]1CC[C@H]2C3=CC[C@H]4CC(=O)CC[C@]4(C)[C@H]3CC[C@]12C [lathosterone]
[1]; 1:5000 dilution of DAF-9 microsomes incubated with 100 μM sterol
  ligand binding activity of DAF-9 microsomes incubated with sterol: strong ligand binding activity
GAL4-DAF-12
  DAF-9 independent activation of GAL4-DAF-12 (in words): required the presence of DAF-9
[2]
  activation of DAF-12 upon co-transfection with DAF-9: 433 fold
Human CYP27A1
  activation of GAL4-DAF-12 with co-transfected human CYP27A1: had no effect
daf-9(dh6) null worms
  effect on daf-9 animals, DAF-9 microsomes (in words): indistinguishable from wild-type adults
  rescue of the Daf-c phenotypes: 100%
  effect on daf-9 phenotypes, control microsomes (in words): did not rescue any daf-9 phenotypes
[3]
  activation of the DAF-12 homolog with co-transfection of DAF-9: causes activation of this DAF-12 homolog
Mouse CYP27A1
  activation of GAL4-DAF-12 with co-transfected mouse CYP27A1: had no effect

## C[C@H](CCC(=O)O)[C@H]1CC[C@H]2[C@@H]3[C@H](O)C[C@@H]4C[C@H](O)CC[C@]4(C)[C@H]3C[C@H](O)[C@]12C [cholic acid]
GAL4-DAF-12
  Activation of DAF-12, initial compound screen: No other bile acids or endocrine hormones tested activated DAF-12

## CC(C)CCC[C@@H](C)[C@H]1CC[C@H]2C3=CC[C@H]4[C@H](C)[C@@H](O)CC[C@]4(C)[C@H]3CC[C@]12C [lophenol]
C. elegans
  effect on the nematode life cycle as the sole dietary sterol: constitutively entered dauer diapause
daf-9(dh6) null worms
  effect on daf-9 animals, DAF-9 microsomes (in words): had no effect
  effect on daf-9 phenotypes, control microsomes (in words): had no effect

## CC(=O)[C@H]1CC[C@H]2[C@@H]3CC=C4C[C@@H](O)CC[C@]4(C)[C@H]3CC[C@]12C [pregnenolone]
GAL4-DAF-12
  Activation of DAF-12, initial compound screen: No other bile acids or endocrine hormones tested activated DAF-12

## C[C@@H](CO)CCC[C@@H](C)[C@H]1CC[C@H]2[C@@H]3CCC4=CC(=O)CC[C@]4(C)[C@H]3CC[C@]12C [(25R),26-hydroxy-4-cholesten-3-one]
[1]; 1 μM sterol
  increase in binding units compared to vehicle control: 2 fold
GAL4-DAF-12
  EC50: 2000 nM
  DAF-9 independent activation of GAL4-DAF-12 (in words): strongly active
daf-9(dh6) nulls
  effect of 26-hydroxy-4-cholesten-3-one on daf-9 nulls (in words): had no effect
daf-9(dh6) null worms
  complete rescue of Daf-c and Mig phenotypes, animals tested: 100%
daf-9(dh6) null worms; [4]
  daf-9 rescue by extracts from control microsome incubations (in words): had no biological effect

## C[C@]12CC[C@H]3[C@@H](CCC4=CC(=O)CC[C@@]43C)[C@@H]1CC[C@@H]2O [testosterone]
GAL4-DAF-12
  Activation of DAF-12, initial compound screen: No other bile acids or endocrine hormones tested activated DAF-12

## C[C@H](CCC(=O)O)[C@H]1CC[C@H]2[C@@H]3C(=O)C[C@@H]4C[C@H](O)CC[C@]4(C)[C@H]3CC[C@]12C [7-keto-lithocholic acid]
GAL4-DAF-12
  Activation of DAF-12, initial compound screen: No other bile acids or endocrine hormones tested activated DAF-12

## C[C@H](CCC(=O)O)[C@H]1CC[C@H]2[C@@H]3CC[C@@H]4CC(=O)CC[C@]4(C)[C@H]3CC[C@]12C [3-keto-lithocholic acid]
GAL4-DAF-12
  Activation of DAF-12, initial compound screen: weak, micromolar activator of DAF-12 independent of DAF-9

## CC(C)CCC[C@@H](C)[C@H]1CC[C@H]2[C@@H]3CC=C4C[C@@H](O)CC[C@]4(C)[C@H]3CC[C@]12C [cholesterol]
daf-9(dh6) null worms
  effect on daf-9 animals, DAF-9 microsomes (in words): no effect was seen
  effect on daf-9 phenotypes, control microsomes (in words): no effect was seen

## CC(=O)[C@H]1CC[C@H]2[C@@H]3CCC4=CC(=O)CC[C@]4(C)[C@H]3CC[C@]12C [progesterone]
GAL4-DAF-12
  Activation of DAF-12, initial compound screen: No other bile acids or endocrine hormones tested activated DAF-12

## C[C@H](CCC(=O)O)[C@H]1CC[C@H]2[C@@H]3CC(=O)[C@@H]4C[C@H](O)CC[C@]4(C)[C@H]3CC[C@]12C [6-keto-lithocholic acid]
GAL4-DAF-12
  Activation of DAF-12, initial compound screen: No other bile acids or endocrine hormones tested activated DAF-12

## C[C@]12C[C@H](O)[C@H]3[C@@H](CCC4=CC(=O)CC[C@@]43C)[C@@H]1CC[C@@H]2C(=O)CO [corticosterone]
GAL4-DAF-12
  Activation of DAF-12, initial compound screen: No other bile acids or endocrine hormones tested activated DAF-12

## CC(C)CCC[C@@H](C)[C@H]1CC[C@H]2C3=CC[C@H]4[C@H](C)C(=O)CC[C@]4(C)[C@H]3CC[C@]12C [lophenone]
GAL4-DAF-12
  DAF-9 independent activation of GAL4-DAF-12 (in words): required the presence of DAF-9
[2]
  activation of DAF-12 upon co-transfection with DAF-9: 103 fold
daf-9(dh6) null worms
  effect on daf-9 animals, DAF-9 microsomes (in words): resulted in rescue of Daf-c, none of these animals were normal
  effect on daf-9 phenotypes, control microsomes (in words): dependent on DAF-9
daf-9(dh6) null worms; [5]
  animals that failed to enter dauer, had molting defects, or were dead: 42%
  animals that were Mig: 58%

## C[C@H](CO)CCC[C@@H](C)[C@H]1CC[C@H]2[C@@H]3CCC4=CC(=O)CC[C@]4(C)[C@H]3CC[C@]12C [(25S),26-hydroxy-4-cholesten-3-one]
[1]; 1 μM sterol
  binding (in words): no significant binding
GAL4-DAF-12
  EC50: 1000 nM
  DAF-9 independent activation of GAL4-DAF-12 (in words): strongly active
daf-9(dh6) nulls
  effect of 26-hydroxy-4-cholesten-3-one on daf-9 nulls (in words): still exhibit Mig and/or molting defects, and sterility
daf-9(dh6) nulls; n>60
  worms that bypass dauer: 93%
daf-9(dh6) null worms
  complete rescue of Daf-c and Mig phenotypes, animals tested: 100%
daf-9(dh6) null worms; [4]
  daf-9 rescue by extracts from control microsome incubations (in words): only an incomplete rescue
  molt defects: 10%
  sterile Mig adults: 75%

## CC(C)(O)CC[C@@H](O)[C@](C)(O)[C@H]1CC[C@@]2(O)C3=CC(=O)[C@@H]4C[C@@H](O)[C@@H](O)C[C@]4(C)[C@H]3CC[C@]12C [20-hydroxyecdysone]
GAL4-DAF-12
  Activation of DAF-12, initial compound screen: No other bile acids or endocrine hormones tested activated DAF-12

## C[C@H](CCC(=O)O)[C@H]1CC[C@H]2[C@@H]3[C@H](O)C[C@@H]4C[C@H](O)CC[C@]4(C)[C@H]3CC[C@]12C [chenodeoxycholic acid]
GAL4-DAF-12
  Activation of DAF-12, initial compound screen: No other bile acids or endocrine hormones tested activated DAF-12

## CC(C)CCC[C@@H](C)[C@H]1CC[C@H]2C3=CC[C@H]4C[C@@H](O)CC[C@]4(C)[C@H]3CC[C@]12C [lathosterol]
C. elegans
  effect on the nematode life cycle as the sole dietary sterol: supported full reproductive growth
daf-9(dh6) null worms
  effect on daf-9 animals, DAF-9 microsomes (in words): exhibited the Mig phenotype and were sterile
  rescue of the Daf-c phenotypes: 83%
  effect on daf-9 phenotypes, control microsomes (in words): no effect

## CC(C)CCC[C@@H](C)[C@H]1CC[C@H]2[C@@H]3CCC4=CC(=O)CC[C@]4(C)[C@H]3CC[C@]12C [4-cholesten-3-one]
[1]; 1 μM sterol
  binding (in words): no significant binding
GAL4-DAF-12
  DAF-9 independent activation of GAL4-DAF-12 (in words): required the presence of DAF-9
[2]
  activation of DAF-12 upon co-transfection with DAF-9: 109 fold
Human CYP27A1
  activation of GAL4-DAF-12 with co-transfected human CYP27A1: potent activation
daf-9(dh6) null worms
  effect on daf-9 animals, DAF-9 microsomes (in words): indistinguishable from wild-type adults
  rescue of the Daf-c phenotypes: 100%
  effect on daf-9 phenotypes, control microsomes (in words): did not rescue any daf-9 phenotypes
Mouse CYP27A1
  activation of GAL4-DAF-12 with co-transfected mouse CYP27A1: potent activation
